In brackets after ≈: the same amount, converted by molar mass. Where no end group is shown, it is not given here.
Assays:
S. aureus ATCC25923 = assay type: cell-based, Staphylococcus aureus; settings: MHB; for MIC S. aureus, No NaCl: 0 mM NaCl; for MIC S. aureus, No NaCl / MIC S. aureus, With 50mM NaCl / MIC S. aureus, With 100mM NaCl / MIC S. aureus, With 150mM NaCl: triplicate, mode; for MIC S. aureus ATCC25923: 37 °C overnight, A595, mode of three independent experiments
Protocol: (§1) The activity of peptides was determined against the Gram-positive Staphylococcus aureus (ATCC 25923), and the Gram-negative Escherichia coli (ATCC 25922) and Pseudomonas aeruginosa (ATCC 9027) bacteria. Selected peptides were also tested against two clinical isolates of methicillin-resistant Staphylococcus aureus (MRSA), M173525 and M180920, kindly provided by Dr P. B. Ward (Microbiology Department, Austin and Repatriation Medical Centre, Heidelberg West, Victoria, Australia). The Minimum inhibitory concentration (MIC) of peptides was determined by the microtitre broth dilution method, as described in Phillips et al.. Briefly, bacteria were grown in Mueller-Hinton Broth (MHB) at 37 °C overnight with shaking (200 rpm). The cultures were adjusted to 0.5 McFarland turbidity standard (approximately 1 × 10^8 colony forming units (CFU)/mL), then diluted 1:100 in MHB (1 × 10^6 CFU/mL). A total of 75 μL of these suspensions were mixed with 25 μL of peptide solutions (final concentrations 250 to 0.5 μg/mL) and the microtitre plates incubated overnight at 37 °C. Positive growth controls (inoculum and MHB, with no peptide) and sterility controls (0.01% glacial acetic) were also included. Post-incubations, the absorbance of cultures at 595 nm was measured using a microplate reader (POLARstar Omega, Germany). […] To evaluate salt sensitivity of peptides up to physiological levels (150 mM NaCl), overnight cultures of S. aureus and E. coli adjusted to 0.5 McFarland turbidity standard were diluted 1:100 in MHB containing 0, 50, 100 or 150 mM NaCl, and the MICs of peptides determined as above. All tests were conducted in triplicate. The results are shown as the mode of values obtained.

C. albicans FRR 5580 = assay type: cell-based, Candida albicans; settings: PDB, overnight; mode of three independent experiments
Protocol: The assay was carried out as per Alfred et al.. Candida albicans (FRR 5580) was grown in potato dextrose broth (PDB; Difco-BD, Bergen County, NJ, USA) overnight at 30 °C with shaking (200 rpm) until exponential phase, then adjusted to 0.5 McFarland turbidity standard (approximately 1 × 10^6 cells/mL) and diluted 1:200 with PDB to 0.5 − 2 × 10^3 cells/mL. Peptides in 25 μL volumes were mixed with 75 μL of the yeast suspensions. The controls were included as above. The plates were incubated overnight and absorbance was recorded. All the tests were conducted in triplicate.

HeLa cells = assay type: cell-based, human; settings: MTT, 24 h, peptide up to 250 µg/mL; concentration causing 50% cell growth inhibition; mean of triplicate assays
Protocol: (§2) Cytotoxicity to human cervical carcinoma HeLa cells and mouse fibroblastic NIH-3T3 cells was determined using the MTT assay as per Scudiero et al. with minor modifications. The cells were maintained in Dulbecco’s Modified Eagle Medium (DMEM) with 10% foetal bovine serum (FBS) and 1% penicillin G in a humidified incubator (Heraeus Hera Cell incubator) at 37 °C with 5% CO2. They were seeded in 96-well microtiter plates at 1 × 10^4 cells/well and allowed to adhere for 24 h in the incubator. The medium was removed, and adherent cells were washed with PBS. Fresh media containing serially diluted peptides in PBS (final concentrations 4 to 250 µg/mL) were added and the cells incubated for 24 h. Cells without peptides were used as negative controls. Following incubations, the medium was removed, and adherent cells were washed with PBS. 150 µL of MTT (diluted to 0.33 mg/mL in DMEM) and the plates incubated for 3 h. The precipitated formazan was dissolved in 100 µL of DMSO and its absorbance measured at 570 nm. Cell viability was determined as: (OD570 nm peptide treated cells/(OD570 nm untreated cells) × 100. Positive cytotoxicity was defined as peptide concentration that causes 50% growth inhibition in a cell line (IC50). All tests were carried out in triplicate.

P. aeruginosa ATCC9027 = assay type: cell-based, Pseudomonas aeruginosa; settings: MHB, 37 °C overnight, A595; mode of three independent experiments
Protocol: as §1

NIH-3T3 cells = test: Cytotoxicity, MTT assay; assay type: cell-based, mouse; settings: 24 h; for IC50 NIH-3T3: peptide up to 250 µg/mL, concentration causing 50% cell growth inhibition, mean of triplicate assays
Protocol: as §2

E. coli ATCC25922 = assay type: cell-based, Escherichia coli; settings: MHB; for MIC E. coli, No NaCl: 0 mM NaCl; for MIC E. coli, No NaCl / MIC E. coli, With 50mM NaCl / MIC E. coli, With 100mM NaCl / MIC E. coli, With 150mM NaCl: triplicate, mode; for MIC E. coli ATCC25922: 37 °C overnight, A595, mode of three independent experiments
Protocol: as §1

[1] = system: porcine trypsin and proteinase K; test: Proteases stability assay; assay type: in vitro ADME, porcine; Tritirachium album; settings: 1000 µg peptide with 50 µg protease (20:1 w/w), porcine trypsin or proteinase K, PBS pH 7.4, 37 °C, 3 h; read-out activity of supernatant on E. coli and S. aureus; triplicate
Protocol: The effect of two well-studied proteases, porcine trypsin and proteinase K from Tritirachium album, on the activity of peptides was investigated as per Carmona et al.. Briefly, 1000 µg of a peptide was incubated with 50 µg of a protease (20:1 w/w) at 37 °C for 3 h in phosphate buffered saline PBS (pH 7.4). The enzyme activity was then terminated by heating (70 °C, 5 min) and the samples centrifuged at 12,000× g. The activity of the supernatant on E. coli and S. aureus was tested as above, in triplicate.

E. coli and S. aureus = test: Salt tolerance (MICs under 0-150 mM NaCl, summary); assay type: cell-based, Escherichia coli; Staphylococcus aureus; parameters: key: Up to 50 mM: no effects on antibacterial activity up to 50 mM NaCl but increase in the MICs for E. coli and S. aureus at 100 mM NaCl; Intolerant: not resistant to salt effects even at 50 mM NaCl; Up to 150 mM: no effects on antibacterial activity up to 150 mM NaCl; settings: MICs for E. coli and S. aureus in MHB with 0, 50, 100 or 150 mM NaCl
Protocol: as §1

[2] = system: pBlueScript SK+ plasmid DNA; test: In vitro DNA-binding assay (gel retardation); settings: 100 ng pBlueScript SK+, peptide 8-500 µg/mL, 1 h room temperature, 1% agarose
Protocol: The ability of peptides to bind to purified DNA (indicative of in vivo DNA binding potential) was tested by the modified gel retardation assay developed by Alfred et al.. The DNA of pBlueScript SK+ (100 ng) was incubated with peptides (to final concentrations of 8, 16, 32, 64, 125, 250 or 500 µg/mL) in 15 µL volumes made with sterile MilliQ water, the held at room temperature for 1h. Loading dye was added to each sample and the samples electrophoresed on 1% agarose gels. The gels were then immersed in ethidium bromide ([…]) then visualized and imaged

| Molecule | MIC S. aureus, No NaCl (S. aureus ATCC25923) [µg/mL] | MIC S. aureus, With 50mM NaCl (S. aureus ATCC25923) [µg/mL] | MIC S. aureus, With 100mM NaCl (S. aureus ATCC25923) [µg/mL] | MIC S. aureus, With 150mM NaCl (S. aureus ATCC25923) [µg/mL] | MIC S. aureus ATCC25923 (S. aureus ATCC25923) [µg/mL] | MIC C. albicans FRR 5580 (C. albicans FRR 5580) [µg/mL] | IC50 HeLa (HeLa cells) [µg/mL] | MIC P. aeruginosa ATCC9027 (P. aeruginosa ATCC9027) [µg/mL] | IC50 NIH-3T3 (NIH-3T3 cells) [µg/mL] | MIC E. coli, No NaCl (E. coli ATCC25922) [µg/mL] | MIC E. coli, With 50mM NaCl (E. coli ATCC25922) [µg/mL] | MIC E. coli, With 100mM NaCl (E. coli ATCC25922) [µg/mL] | MIC E. coli, With 150mM NaCl (E. coli ATCC25922) [µg/mL] | MIC E. coli ATCC25922 (E. coli ATCC25922) [µg/mL] | Protease Stability [1] | Salt Tolerance (E. coli and S. aureus) | Cytotoxicity to NIH-3T3 mouse fibroblasts (in words) (NIH-3T3 cells; up to 250 µg/mL) | Binding to DNA in vitro (concentration inhibiting plasmid migration) [2] [µg/mL] |
| --- | --- | --- | --- | --- | --- | --- | --- | --- | --- | --- | --- | --- | --- | --- | --- | --- | --- | --- |
| RWWKWW-NH2 [Peptide R6] | 16 | 32 | 250 | > 250 | 16 | 64 | >250 | 32 | 250 | 32 | 64 | 250 | > 250 | 32 | Unstable | Intolerant |  |  |
| RWWKWWK-NH2 [Peptide R7] | 16 | 32 | 250 | > 250 | 16 | 64 | >250 | 32 | 250 | 8 | 32 | 250 | > 250 | 8 | Unstable | Intolerant |  |  |
| CC(C)[C@H](NC(=O)[C@@H]1CCCN1C(=O)[C@@H](N)Cc1ccccc1)C(=O)N[C@H](C(=O)N[C@@H](Cc1c[nH]c2ccccc12)C(=O)N[C@@H](CCCNC(=N)N)C(=O)N[C@@H](Cc1c[nH]c2ccccc12)C(=O)N[C@@H](Cc1c[nH]c2ccccc12)C(=O)N[C@@H](CCCCN)C(=O)N[C@@H](Cc1c[nH]c2ccccc12)C(=O)N[C@@H](Cc1c[nH]c2ccccc12)C(=O)N[C@@H](CCCCN)C(=O)NCC(=O)O)[C@@H](C)O [PuroA-OH] | 64 (≈ 34.3 µM) | 125 (≈ 67.1 µM) | > 250 | > 250 | 64 (≈ 34.3 µM) | 250 (≈ 134 µM) | >250 | 125 (≈ 67.1 µM) | >250 | 32 (≈ 17.2 µM) | 64 (≈ 34.3 µM) | > 250 | > 250 | 32 (≈ 17.2 µM) | Unstable | Intolerant | no cytotoxicity |  |
| WRWWKWW-NH2 [dW7, diastereomeric counterpart of W7] | 8 | 8 | 8 | 8 | 8 | 64 | 125 | 16 | >250 | 8 | 8 | 8 | 8 | 8 |  | Up to 150 mM |  | ≥ 32 |
| CC(C)[C@H](NC(=O)[C@@H]1CCCN1C(=O)[C@@H](N)Cc1ccccc1)C(=O)N[C@H](C(=O)N[C@@H](Cc1c[nH]c2ccccc12)C(=O)N[C@@H](CCCNC(=N)N)C(=O)N[C@@H](Cc1c[nH]c2ccccc12)C(=O)N[C@@H](Cc1c[nH]c2ccccc12)C(=O)N[C@@H](CCCCN)C(=O)N[C@@H](Cc1c[nH]c2ccccc12)C(=O)N[C@@H](Cc1c[nH]c2ccccc12)C(=O)N[C@@H](CCCCN)C(=O)NCC(=O)NCCCC[C@@H](NC(=O)CNC(=O)[C@H](CCCCN)NC(=O)[C@H](Cc1c[nH]c2ccccc12)NC(=O)[C@H](Cc1c[nH]c2ccccc12)NC(=O)[C@H](CCCCN)NC(=O)[C@H](Cc1c[nH]c2ccccc12)NC(=O)[C@H](Cc1c[nH]c2ccccc12)NC(=O)[C@H](CCCNC(=N)N)NC(=O)[C@H](Cc1c[nH]c2ccccc12)NC(=O)[C@@H](NC(=O)[C@@H](NC(=O)[C@@H]1CCCN1C(=O)[C@@H](N)Cc1ccccc1)C(C)C)[C@@H](C)O)C(N)=O)[C@@H](C)O [Di-PuroA] |  |  |  |  |  |  |  |  |  |  |  |  |  |  | Unstable | Intolerant |  |  |
| RKRWWRWWKWWKR-NH2 [dP1, diastereomeric counterpart of P1] | 16 | 16 | 16 | 16 |  | 64 | 125 | 16 | 250 | 16 | 16 | 16 | 16 |  |  | Up to 150 mM |  |  |
| WWRWWKWW-NH2 [dWW, diastereomeric counterpart of WW] | 8 | 8 | 8 | 8 | 8 | 64 | 125 | 32 | 250 | 8 | 8 | 8 | 8 | 8 |  | Up to 150 mM |  |  |

Reference: PMC7696940, “Effects of Rationally Designed Physico-Chemical Variants of the Peptide PuroA on Biocidal Activity towards Bacterial and Mammalian Cells” (International Journal of Molecular Sciences, 2020)
